According to US8415359B2, “Phenylpyrrole derivative” (Daiichi Sankyo Company, Limited, priority 2008, dated 2013):

Biological target: T1, human pancreatic GK (human glucokinase variant 1, GST-fused protein) (Homo sapiens, UniProt P35557)
T1 construct: made in house; host or cells: Escherichia coli (such as BL21 or JM109)
T1 sequence (P35557 1-465): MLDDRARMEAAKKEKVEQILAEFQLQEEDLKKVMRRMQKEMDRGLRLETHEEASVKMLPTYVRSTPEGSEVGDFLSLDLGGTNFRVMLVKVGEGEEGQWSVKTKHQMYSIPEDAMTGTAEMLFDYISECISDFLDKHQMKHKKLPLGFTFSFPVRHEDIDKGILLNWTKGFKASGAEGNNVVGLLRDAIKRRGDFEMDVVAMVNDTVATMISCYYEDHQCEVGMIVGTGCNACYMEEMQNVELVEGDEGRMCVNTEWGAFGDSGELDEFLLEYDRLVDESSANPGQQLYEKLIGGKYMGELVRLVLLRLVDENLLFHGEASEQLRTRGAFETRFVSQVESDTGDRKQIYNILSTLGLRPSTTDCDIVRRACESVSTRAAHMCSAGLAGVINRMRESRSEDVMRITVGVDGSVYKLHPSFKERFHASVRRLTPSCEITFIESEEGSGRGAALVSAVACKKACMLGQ
Experiment: GK activity test (GK activation rate)
Type: biochemical
Conditions: test compound 1 μM; glucose 5 mM; 30 min at room temperature; absorbance at 340 nm with test compound / without test compound
Experimental: cDNA encoding human pancreatic GK polypeptide (GenBank Accession No. NM_000162, human glucokinase variant 1) was cloned from a human cDNA library by polymerase chain reaction (PCR), and introduced into a glutathione S-transferase (GST)-fused protein expression vector (GEX4T, GE Healthcare Bioscience). The vector was introduced into Escherichia coli (such as BL21 or JM109, Invitrogen), and the transformed E. coli was cultured overnight at 37° C. followed by recovery of the cells. After freezing and thawing the recovered cells, the cells were suspended in phosphate buffer containing Triton-X at a final concentration of 1% followed by disrupting the cells with an ultrasonic homogenizer. The supernatant obtained by low-speed centrifugation treatment of the homogenate (10,000×g, 30 minutes) was further subjected to high-speed centrifugation (100,000×g, 10 minutes) followed by recovering the supernatant and purifying the fused protein using a GST fused protein purification system (Bulk GST Purification Module, GE Healthcare Bioscience). The GK fused protein was divided into smaller aliquots and stored at −80° C.
GK activity was measured using the GK purified in (1) above. More specifically, an enzyme solution was prepared by adding the purified GK of (1) above and glucose-6-phosphate dehydrogenase (Sigma) to solution 1 of a glucose assay kit (D-Glucose UV Method, Roche Diagnostics). The enzyme solution, a test compound diluent and glucose (final concentration: 5 mM) were mixed in a 96-well ELISA plate, and allowed to react for 30 minutes at room temperature. Following completion of the reaction, absorbance at a wavelength of 340 nm was measured using SpectraMax Plus (Molecular Probe). Furthermore, unreacted (when glucose was not added) absorbance was used for the background.
GK activation rates were indicated with values represented by the following numerical formula: (absorbance after reacting for 30 minutes when test compound added)/(absorbance after reacting for 30 minutes when test compound not added).

Point of comparison: `COC[C@H](C)Oc1cc(Oc2ccc(S(C)(=O)=O)nc2)cc(-c2ccc(C3=N[C@H](CO)CO3)[nH]2)c1` [Example 86, {(4R)-2-[5-(3-[(1S)-2-Methoxy-1-methylethoxy]-5-{[6-(methylsulfonyl)pyridin-3-yl]oxy}phenyl)-1H-pyrrol-2-yl]-4,5-dihydro-1,3-oxazol-4-yl}methanol], “GK Activation Rate” value 2.5. Against it:
- COC[C@H](C)Oc1cc(Oc2ccc(S(C)(=O)=O)nc2)cc(-c2ccc(C3=NC[C@H](C)O3)[nH]2)c1 [Example 76, 5-(3-[(1S)-2-Methoxy-1-methylethoxy]-5-{5-[(5S)-5-methyl-4,5-dihydro-1,3-oxazol-2-yl]-1,4-pyrrol-2-yl}phenoxy)-2-(methylsulfonyl)pyridine] — higher, 3.0
- COC[C@H](C)Oc1cc(Oc2ncc(C(=O)N3CCC3)cc2Cl)cc(-c2ccc(C3=NC[C@H](C)O3)[nH]2)c1 [Example 74, 5-(Azetidin-1-ylcarbonyl)-3-chloro-2-(3-[(1S)-2-methoxy-1-methylethoxy]-5-{5-[(5S)-5-methyl-4,5-dihydro-1,3-oxazol-2-yl]-1H-pyrrol-2-yl}phenoxy)pyridine] — lower, 2.0
- COC[C@H](C)Oc1cc(Oc2cnc(S(C)(=O)=O)cn2)cc(-c2ccc(C3=NC[C@H](CO)O3)[nH]2)c1 [Example 101, {(5R)-2-[5-(3-[(1S)-2-Methoxy-1-methylethoxy]-5-{[5-(methylsulfonyl)pyrazin-2-yl]oxy}phenyl)-1H-pyrrol-2-yl]-4,5-dihydro-1,3-oxazol-5-yl}methanol] — lower, 1.9
- C[C@@H]1COC(c2ccc(-c3cc(Oc4ccc(S(C)(=O)=O)nc4)cc(O[C@@H](C)CO)c3)[nH]2)=N1 [Example 84, (2S)-2-(3-{5-[(4R)-4-Methyl-4,5-dihydro-1,3-oxazol-2-yl]-1H-pyrrol-2-yl}-5-{-[6-(methylsulfonyl)pyridin-3-yl]oxy}phenoxy)propan-1-ol] — higher, 2.7
- COC[C@H](C)Oc1cc(Oc2ccc(S(C)(=O)=O)cc2)cc(-c2ccc(C3=NC[C@H](CO)O3)[nH]2)c1 [Example 35, [(5R)-2-(5-{3-[(1S)-2-Methoxy-1-methylethoxy]-5-[4-(methylsulfonyl)phenoxy]phenyl}-1H-pyrrol-2-yl)-4,5-dihydro-1,3-oxazol-5-yl]methanol] — lower, 2.1
- COC[C@H](C)Oc1cc(Oc2ccc(S(C)(=O)=O)cc2)cc(-c2ccc(C3=NC[C@@H](C)O3)[nH]2)c1 [Example 33, (5R)-2-(5-{3-[(1S)-2-Methoxy-1-methylethoxy]-5-[4-(methylsulfonyl)phenoxy]phenyl}-1H-pyrrol-2-yl)-5-methyl-4,5-dihydro-1,3-oxazole] — lower, 1.7
- Cc1nnc(-c2ccc(-c3cc(Oc4ccc(C(=O)N5CCC5)cc4F)cc(O[C@@H](C)CO)c3)[nH]2)o1 [Example 67, (2S)-2-{3-[4-(Azetidin-1-ylcarbonyl)-2-fluorophenoxy]-5-[5-(5-methyl-1,3,4-oxadiazol-2-yl)-1H-pyrrol-2-yl]phenoxy}propan-1-ol] — lower, 1.7
- Cc1nnc(-c2ccc(-c3cc(Oc4ccc(S(C)(=O)=O)nc4)cc(O[C@@H](C)CO)c3)[nH]2)o1 [Example 81, (2S)-2-(3-[5-(5-Methyl-1,3,4-oxadiazol-2-yl)-1H-pyrrol-2-yl]-5-{[6-(methylsulfonyl)pyridin-3-yl]oxy}phenoxy)propan-1-ol] — lower, 2.2
- C[C@@H]1COC(c2ccc(-c3cc(Oc4cnc(S(C)(=O)=O)cn4)cc(O[C@@H](C)CO)c3)[nH]2)=N1 [Example 107, (2S)-2-(3-{5-[(4R)-4-Methyl-4,5-dihydro-1,3-oxazol-2-yl]-1H-pyrrol-2-yl}-5-{[5-(methylsulfonyl)pyrazin-2-yl]oxy}phenoxy)propan-1-ol] — lower, 2.0
- C[C@@H]1OC(c2ccc(-c3cc(Oc4cnc(S(C)(=O)=O)cn4)cc(O[C@@H](C)CO)c3)[nH]2)=N[C@@H]1C [Example 109, (2S)-2-(3-{5-[(4R,5S)-4,5-Dimethyl-4,5-dihydro-1,3-oxazol-2-yl]-1H-pyrrol-2-yl}-5-{[5-(methylsulfonyl)pyrazin-2-yl]oxy}phenoxy)propan-1-ol] — lower, 2.2
- COC[C@H](C)Oc1cc(Oc2ccc(S(C)(=O)=O)nc2)cc(-c2ccc(-c3nccs3)[nH]2)c1 [Example 65, 5-{3-[(1S)-2-Methoxy-1-methylethoxy]-5-[5-(1,3-thiazol-2-yl)-1H-pyrrol-2-yl]phenoxy}-2-(methylsulfonyl)pyridine] — lower, 2.4
- COC[C@H](C)Oc1cc(Oc2ccc(S(C)(=O)=O)nc2)cc(-c2ccc(C3=N[C@H]([C@H](C)O)CO3)[nH]2)c1 [Example 93, (1S)-1-{(4S)-2-[5-(3-[(1S)-2-Methoxy-1-methylethoxy]-5-{[6-(methylsulfonyl)pyridin-3-yl]oxy}phenyl)-1H-pyrrol-2-yl]-4,5-dihydro-1,3-oxazol-4-yl}ethanol] — lower, 2.4
- Cc1nnc(-c2ccc(-c3cc(Oc4cnc(S(C)(=O)=O)cn4)cc(O[C@@H](C)CO)c3)[nH]2)o1 [Example 98, (2S)-2-(3-[5-(5-Methyl-1,3,4-oxadiazol-2-yl)-1H-pyrrol-2-yl]-5-{[5-(methylsulfonyl)pyrazin-2-yl]oxy}phenoxy)propan-1-ol] — lower, 1.9
- COC[C@H](C)Oc1cc(Oc2ccc(S(C)(=O)=O)cc2)cc(-c2ccc(C(C)=O)[nH]2)c1 [Example 15, 1-(5-{3-[(1S)-2-Methoxy-1-methylethoxy]-5-[4-(methylsulfonyl)phenoxy]phenyl}-1H-pyrrol-2-yl)ethanone] — lower, 1.6
- C[C@H]1CN=C(c2ccc(-c3cc(Oc4ccc(S(C)(=O)=O)cc4)cc(O[C@@H](C)CO)c3)[nH]2)O1 [Example 32, (2S)-2-(3-{5-[(5S)-5-Methyl-4,5-dihydro-1,3-oxazol-2-yl]-1H-pyrrol-2-yl}-5-[4-(methylsulfonyl)phenoxy]phenoxy)propan-1-ol] — lower, 2.0
- COC[C@H](C)Oc1cc(Oc2ccc(C(=O)N3CCC3)cc2F)cc(-c2ccc(C3=NCCO3)[nH]2)c1 [Example 68, 2-(5-{3-[4-(Azetidin-1-ylcarbonyl)-2-fluorophenoxy]-5-[(1S)-2-methoxy-1-methylethoxy]phenyl}-1H-pyrrol-2-yl)-4,5-dihydro-1,3-oxazole] — lower, 2.0
- COC[C@H](C)Oc1cc(Oc2cnc(S(C)(=O)=O)cn2)cc(-c2ccc(C3=NC(O)[C@H](C)O3)[nH]2)c1 (stereo partly drawn) [Example 103, (5S)-2-[5-(3-[(1S)-2-Methoxy-1-methylethoxy]-5-{[5-(methylsulfonyl)pyrazin-2-yl]oxy}phenyl)-1H-pyrrol-2-yl]-5-methyl-4,5-dihydro-1,3-oxazol-4-ol] — lower, 2.1
- CC[C@@H]1COC(c2ccc(-c3cc(Oc4cnc(S(C)(=O)=O)cn4)cc(O[C@@H](C)CO)c3)[nH]2)=N1 [Example 108, (2S)-2-(3-{5-[(4R)-4-Ethyl-4,5-dihydro-1,3-oxazol-2-yl]-1H-pyrrol-2-yl}-5-{[5-(methylsulfonyl)pyrazin-2-yl]oxy}phenoxy)propan-1-ol] — lower, 2.0
- COC[C@H](C)Oc1cc(Oc2ccc(S(C)(=O)=O)nc2)cc(-c2ccc(C3=N[C@H]([C@@H](C)O)CO3)[nH]2)c1 [Example 95, (1R)-1-{(4S)-2-[5-(3-[(1S)-2-Methoxy-1-methylethoxy]-5-{[6-(methylsulfonyl)pyridin-3-yl]oxy}phenyl)-1H-pyrrol-2-yl]-4,5-dihydro-1,3-oxazol-4-yl}ethanol] — the same, 2.5
- C[C@@H](CO)Oc1cc(Oc2ccc(S(C)(=O)=O)cc2)cc(-c2ccc(-c3nccs3)[nH]2)c1 [Example 2, (2S)-2-{3-[4-(Methylsulfonyl)phenoxy]-5-[5-(1,3-thiazol-2-yl)-1H-pyrrol-2-yl]phenoxy}propan-1-ol] — lower, 1.9
